This assay addresses T1, Equilibrative nucleoside transporter 1 (Homo sapiens, UniProt Q99808).
T1 sequence (Q99808 whole entry): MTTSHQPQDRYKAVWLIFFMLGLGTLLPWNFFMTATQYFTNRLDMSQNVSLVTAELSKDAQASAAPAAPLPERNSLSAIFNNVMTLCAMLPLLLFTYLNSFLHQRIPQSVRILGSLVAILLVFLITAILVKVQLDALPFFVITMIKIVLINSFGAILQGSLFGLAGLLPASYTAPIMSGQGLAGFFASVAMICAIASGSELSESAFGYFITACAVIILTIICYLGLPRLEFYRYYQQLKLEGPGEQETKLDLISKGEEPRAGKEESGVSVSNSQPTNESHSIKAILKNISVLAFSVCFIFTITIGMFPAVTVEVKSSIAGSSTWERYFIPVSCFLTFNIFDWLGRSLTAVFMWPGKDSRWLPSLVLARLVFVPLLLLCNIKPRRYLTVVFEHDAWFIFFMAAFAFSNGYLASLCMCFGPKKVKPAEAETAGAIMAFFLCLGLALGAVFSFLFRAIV
The assay is described as follows: Displacement of 5-(SAENTA)-X8-fluorescein from K562 cell nucleoside transporter. In kind it is cell-based.

Turning to `OC[C@H]1O[C@@H](n2cnc3c(SCc4cccc(Br)c4)ncnc32)[C@H](O)[C@@H]1O`, the Ki turned out to be 20.5 nM. The result for `OC[C@H]1O[C@@H](n2cnc3c(SCc4ccccc4Cl)ncnc32)[C@H](O)[C@@H]1O` reads 99.5 nM; that for `OC[C@H]1O[C@@H](n2cnc3c(SCc4cccc(F)c4)ncnc32)[C@H](O)[C@@H]1O`, 11.2 nM.

Consider `OC[C@H]1O[C@@H](n2cnc3c(SCc4ccccc4I)ncnc32)[C@H](O)[C@@H]1O`, for which the Ki was 16.1 nM. The same measure for `OC[C@H]1O[C@@H](n2cnc3c(SCc4cccc(I)c4)ncnc32)[C@H](O)[C@@H]1O`: 13.8 nM; for `OC[C@H]1O[C@@H](n2cnc3c(SCc4cccc(Cl)c4)ncnc32)[C@H](O)[C@@H]1O`: 16 nM; for `OC[C@H]1O[C@@H](n2cnc3c(SCc4ccc(F)cc4)ncnc32)[C@H](O)[C@@H]1O`: 9.02 nM. The same measure for `OC[C@H]1O[C@@H](n2cnc3c(SCc4ccccc4Br)ncnc32)[C@H](O)[C@@H]1O`: 134 nM; for `OC[C@H]1O[C@@H](n2cnc3c(SCc4ccc(I)cc4)ncnc32)[C@H](O)[C@@H]1O`: 3.88 nM; for `OC[C@H]1O[C@@H](n2cnc3c(SCc4ccccc4F)ncnc32)[C@H](O)[C@@H]1O`: 19.9 nM. With `OC[C@H]1O[C@@H](n2cnc3c(SCc4ccc(Cl)cc4)ncnc32)[C@H](O)[C@@H]1O`, the Ki came out at 14.2 nM.

Compound `OC[C@H]1O[C@@H](n2cnc3c(SCc4ccc(Br)cc4)ncnc32)[C@H](O)[C@@H]1O` gave an inhibition constant (Ki) of 9.98 nM.

As a reminder, the Ki is a measure of affinity in units of concentration, obtained from inhibition or displacement. High values mean a looser hold on the target, low ones a stronger hold on the target.

The values above are taken from ChEMBL document CHEMBL1147566, “Novel halogenated nitrobenzylthioinosine analogs as es nucleoside transporter inhibitors” (Bioorg Med Chem Lett, 2004).
